# In patent publication US8551984B2, “Aminopyrimidines as SYK inhibitors” (Merck Sharp & Dohme Corp., priority 2009, dated 2013):
# Biological target: recombinant human SYK (GST-hSYK fusion protein) (Homo sapiens, UniProt P43405)
# Experiment: biochemical
# Settings: rhSYK Activity
# Description: Homogeneous Time-Resolved Fluorescence (HTRF) Assay for the Recombinant Human SYK Enzyme:
IC50 (Table 54D),IC50 (Table 54E),Structure (SMILES)
< 0.1 µM,–,Cc1cc(Nc2nccc(C(C)C)n2)cc(-c2cnc(C3(O)CCCN(C(=O)Cn4cnnn4)CC3)s2)c1 (stereo not shown) [Example 54D-19]
< 0.1 µM,–,Cc1cc(Nc2nccc(C(F)(F)F)n2)cc(-c2cnc(C3(O)CCCN(C(=O)CC(N)=O)CC3)s2)c1 (stereo not shown) [Example 54D-22]
< 0.1 µM,–,Cc1cc(Nc2nccc(C(F)(F)F)n2)cc(-c2cnc(C3(O)CCCN(C(=O)CC(C)O)CC3)s2)c1 (stereo not shown) [Example 54D-23]
< 0.1 µM,–,Cc1cc(Nc2nccc(C(F)(F)F)n2)cc(-c2cnc(C3(O)CCCN(C(=O)CC(=O)O)CC3)s2)c1 (stereo not shown) [Example 54D-24]
< 0.1 µM,–,Cc1cc(Nc2nccc(C(F)(F)F)n2)cc(-c2cnc(C3(O)CCCN(C(=O)C(O)CO)CC3)s2)c1 (stereo not shown) [Example 54D-27]
< 0.1 µM,–,CCOC(=O)CC(=O)N1CCCC(O)(c2ncc(-c3cc(C)cc(Nc4nccc(C(C)C)n4)c3)s2)CC1 (stereo not shown) [Example 54D-30]
< 0.1 µM,–,Cc1cc(Nc2nccc(C(C)C)n2)cc(-c2cnc(C3(O)CCCN(C(=O)C(C)(CO)CO)CC3)s2)c1 (stereo not shown) [Example 54D-31]
< 0.1 µM,–,Cc1cc(Nc2nccc(C(F)(F)F)n2)cc(-c2cnc(C3(O)CCCN(C(=O)c4ncc[nH]4)CC3)s2)c1 (stereo not shown) [Example 54D-34]
< 0.1 µM,–,Cc1cc(Nc2nccc(C(F)(F)F)n2)cc(-c2cnc(C3(O)CCCN(C(=O)C4CCCO4)CC3)s2)c1 (stereo not shown) [Example 54D-40]
< 0.1 µM,–,Cc1cc(Nc2nccc(C(F)(F)F)n2)cc(-c2cnc(C3(O)CCCN(C(=O)CCC(=O)O)CC3)s2)c1 (stereo not shown) [Example 54D-43]
< 0.1 µM,–,Cc1cc(Nc2nccc(C(F)(F)F)n2)cc(-c2cnc(C3(O)CCCN(C(=O)CC(C)(C)O)CC3)s2)c1 (stereo not shown) [Example 54D-44]
< 0.1 µM,–,Cc1cc(Nc2nccc(C(F)(F)F)n2)cc(-c2cnc(C3(O)CCCN(C(=O)c4ccccc4)CC3)s2)c1 (stereo not shown) [Example 54D-45]
< 0.1 µM,–,Cc1cc(Nc2nccc(C(F)(F)F)n2)cc(-c2cnc(C3(O)CCCN(C(=O)Cn4ccnc4)CC3)s2)c1 (stereo not shown) [Example 54D-46]
< 0.1 µM,–,Cc1cc(Nc2nccc(C(F)(F)F)n2)cc(-c2cnc(C3(O)CCCN(C(=O)Cc4c[nH]cn4)CC3)s2)c1 (stereo not shown) [Example 54D-47]
< 0.1 µM,–,Cc1cc(Nc2nccc(C(F)(F)F)n2)cc(-c2cnc(C3(O)CCCN(C(=O)c4cc(C)on4)CC3)s2)c1 (stereo not shown) [Example 54D-48]
< 0.1 µM,–,Cc1cc(Nc2nccc(C(F)(F)F)n2)cc(-c2cnc(C3(O)CCCN(C(=O)Cn4cncn4)CC3)s2)c1 (stereo not shown) [Example 54D-49]
< 0.1 µM,–,Cc1cc(Nc2nccc(C(F)(F)F)n2)cc(-c2cnc(C3(O)CCCN(C(=O)CC(F)(F)F)CC3)s2)c1 (stereo not shown) [Example 54D-54]
< 0.1 µM,–,Cc1cc(Nc2nccc(C(F)(F)F)n2)cc(-c2cnc(C3(O)CCCN(C(=O)c4nnnn4C)CC3)s2)c1 (stereo not shown) [Example 54D-55]
< 0.1 µM,–,Cc1cc(Nc2nccc(C(F)(F)F)n2)cc(-c2cnc(C3(O)CCCN(C(=O)Cn4cnnn4)CC3)s2)c1 (stereo not shown) [Example 54D-56]
< 0.1 µM,–,Cc1cc(Nc2nccc(C(F)(F)F)n2)cc(-c2cnc(C3(O)CCCN(C(=O)C4CCC(=O)N4)CC3)s2)c1 (stereo not shown) [Example 54D-61]
< 0.1 µM,–,Cc1cc(Nc2nccc(C(F)(F)F)n2)cc(-c2cnc(C3(O)CCCN(C(=O)c4n[nH]c(=O)[nH]4)CC3)s2)c1 (stereo not shown) [Example 54D-62]
< 0.1 µM,–,Cc1cc(Nc2nccc(C(F)(F)F)n2)cc(-c2cnc(C3(O)CCCN(C(=O)C4CNC(=O)N4)CC3)s2)c1 (stereo not shown) [Example 54D-64]

IC50 (Table 54D),IC50 (Table 54E),Structure (SMILES)
< 0.1 µM,–,Cc1cc(Nc2nccc(C(F)(F)F)n2)cc(-c2cnc(C3(O)CCCN(C(=O)C4CCCCO4)CC3)s2)c1 (stereo not shown) [Example 54D-65]
< 0.1 µM,–,Cc1cc(Nc2nccc(C(F)(F)F)n2)cc(-c2cnc(C3(O)CCCN(C(=O)C4CCC(=O)O4)CC3)s2)c1 (stereo not shown) [Example 54D-66]
< 0.1 µM,–,Cc1cc(Nc2nccc(C(F)(F)F)n2)cc(-c2cnc(C3(O)CCCN(C(=O)CC4CCOC4)CC3)s2)c1 (stereo not shown) [Example 54D-67]
< 0.1 µM,–,Cc1cc(Nc2nccc(C(F)(F)F)n2)cc(-c2cnc(C3(O)CCCN(C(=O)C4CCCOC4)CC3)s2)c1 (stereo not shown) [Example 54D-68]
< 0.1 µM,–,Cc1cc(Nc2nccc(C(F)(F)F)n2)cc(-c2cnc(C3(O)CCCN(C(=O)C4(C(=O)O)CC4)CC3)s2)c1 (stereo not shown) [Example 54D-70]
< 0.1 µM,–,Cc1cc(Nc2nccc(C(F)(F)F)n2)cc(-c2cnc(C3(O)CCCN(C(=O)C4CC4C(=O)O)CC3)s2)c1 (stereo not shown) [Example 54D-71]
< 0.1 µM,–,COC(=O)CCC(=O)N1CCCC(O)(c2ncc(-c3cc(C)cc(Nc4nccc(C(F)(F)F)n4)c3)s2)CC1 (stereo not shown) [Example 54D-72]
< 0.1 µM,–,CCOC(=O)CC(=O)N1CCCC(O)(c2ncc(-c3cc(C)cc(Nc4nccc(C(F)(F)F)n4)c3)s2)CC1 (stereo not shown) [Example 54D-73]
< 0.1 µM,–,Cc1cc(Nc2nccc(C(F)(F)F)n2)cc(-c2cnc(C3(O)CCCN(C(=O)CCNC(N)=O)CC3)s2)c1 (stereo not shown) [Example 54D-76]
< 0.1 µM,–,Cc1cc(Nc2nccc(C(F)(F)F)n2)cc(-c2cnc(C3(O)CCCN(C(=O)C(O)C(C)(C)O)CC3)s2)c1 (stereo not shown) [Example 54D-77]
< 0.1 µM,–,Cc1cc(Nc2nccc(C(F)(F)F)n2)cc(-c2cnc(C3(O)CCCN(C(=O)C(C)(CO)CO)CC3)s2)c1 (stereo not shown) [Example 54D-78]
< 0.1 µM,–,Cc1cc(Nc2nccc(C(F)(F)F)n2)cc(-c2cnc(C3(O)CCCN(C(=O)Cc4cccnc4)CC3)s2)c1 (stereo not shown) [Example 54D-81]
< 0.1 µM,–,Cc1cc(Nc2nccc(C(F)(F)F)n2)cc(-c2cnc(C3(O)CCCN(C(=O)Cc4ccccn4)CC3)s2)c1 (stereo not shown) [Example 54D-82]
< 0.1 µM,–,Cc1cc(Nc2nccc(C(F)(F)F)n2)cc(-c2cnc(C3(O)CCCN(C(=O)CS(C)(=O)=O)CC3)s2)c1 (stereo not shown) [Example 54D-83]
< 0.1 µM,–,Cc1cc(Nc2nccc(C(F)(F)F)n2)cc(-c2cnc(C3(O)CCCN(C(=O)c4ccc(O)cc4)CC3)s2)c1 (stereo not shown) [Example 54D-84]
< 0.1 µM,–,Cc1cc(Nc2nccc(C(F)(F)F)n2)cc(-c2cnc(C3(O)CCCN(C(=O)c4ccc(O)cn4)CC3)s2)c1 (stereo not shown) [Example 54D-85]
< 0.1 µM,–,Cc1cc(Nc2nccc(C(F)(F)F)n2)cc(-c2cnc(C3(O)CCCN(C(=O)c4cccc(O)n4)CC3)s2)c1 (stereo not shown) [Example 54D-86]
< 0.1 µM,–,Cc1cc(Nc2nccc(C(F)(F)F)n2)cc(-c2cnc(C3(O)CCCN(C(=O)c4cc(O)ccn4)CC3)s2)c1 (stereo not shown) [Example 54D-87]
< 0.1 µM,–,Cc1cc(Nc2nccc(C(F)(F)F)n2)cc(-c2cnc(C3(O)CCCN(C(=O)CCc4cn[nH]c4)CC3)s2)c1 (stereo not shown) [Example 54D-88]
< 0.1 µM,–,Cc1cc(Nc2nccc(C(F)(F)F)n2)cc(-c2cnc(C3(O)CCCN(C(=O)CCC(F)(F)F)CC3)s2)c1 (stereo not shown) [Example 54D-90]
< 0.1 µM,–,Cc1cc(Nc2nccc(C(F)(F)F)n2)cc(-c2cnc(C3(O)CCCN(C(=O)CN4CCCC4=O)CC3)s2)c1 (stereo not shown) [Example 54D-91]
< 0.1 µM,–,Cc1cc(Nc2nccc(C(F)(F)F)n2)cc(-c2cnc(C3(O)CCCN(C(=O)C4CCCC(=O)N4)CC3)s2)c1 (stereo not shown) [Example 54D-92]

IC50 (Table 54D),IC50 (Table 54E),Structure (SMILES)
< 0.1 µM,–,Cc1cc(Nc2nccc(C(F)(F)F)n2)cc(-c2cnc(C3(O)CCCN(C(=O)Cc4n[nH]c(=O)[nH]4)CC3)s2)c1 (stereo not shown) [Example 54D-93]
< 0.1 µM,–,COC(=O)C1(C(=O)N2CCCC(O)(c3ncc(-c4cc(C)cc(Nc5nccc(C(F)(F)F)n5)c4)s3)CC2)CC1 (stereo not shown) [Example 54D-95]
< 0.1 µM,–,Cc1cc(Nc2nccc(C(F)(F)F)n2)cc(-c2cnc(C3(O)CCCN(C(=O)CC4CCOCC4)CC3)s2)c1 (stereo not shown) [Example 54D-96]
< 0.1 µM,–,Cc1cc(Nc2nccc(C(F)(F)F)n2)cc(-c2cnc(C3(O)CCCN(C(=O)C(O)C(F)(F)F)CC3)s2)c1 (stereo not shown) [Example 54D-97]
< 0.1 µM,–,Cc1cc(Nc2nccc(C(F)(F)F)n2)cc(-c2cnc(C3(O)CCCN(C(=O)CCC(=O)N(C)C)CC3)s2)c1 (stereo not shown) [Example 54D-98]
< 0.1 µM,–,C#Cc1ccc(C(=O)N2CCCC(O)(c3ncc(-c4cc(C)cc(Nc5nccc(C(F)(F)F)n5)c4)s3)CC2)cc1 (stereo not shown) [Example 54D-99]
< 0.1 µM,–,CCC(CO)(CO)C(=O)N1CCCC(O)(c2ncc(-c3cc(C)cc(Nc4nccc(C(F)(F)F)n4)c3)s2)CC1 (stereo not shown) [Example 54D-102]
< 0.1 µM,–,Cc1cc(Nc2nccc(C(F)(F)F)n2)cc(-c2cnc(C3(O)CCCN(C(=O)c4cc(O)ccc4F)CC3)s2)c1 (stereo not shown) [Example 54D-104]
< 0.1 µM,–,Cc1cc(Nc2nccc(C(F)(F)F)n2)cc(-c2cnc(C3(O)CCCN(C(=O)c4ccnc(Cl)n4)CC3)s2)c1 (stereo not shown) [Example 54D-105]
< 0.1 µM,–,CC(=O)Oc1ccc(C(=O)N2CCCC(O)(c3ncc(-c4cc(C)cc(Nc5nccc(C(F)(F)F)n5)c4)s3)CC2)cc1 (stereo not shown) [Example 54D-106]
< 0.1 µM,–,COC(=O)C1CCC(C(=O)N2CCCC(O)(c3ncc(-c4cc(C)cc(Nc5nccc(C(F)(F)F)n5)c4)s3)CC2)CC1 (stereo not shown) [Example 54D-111]
< 0.1 µM,–,COC(=O)C(O)(CC(=O)N1CCCC(O)(c2ncc(-c3cc(C)cc(Nc4nccc(C(F)(F)F)n4)c3)s2)CC1)C(F)(F)F (stereo not shown) [Example 54D-112]
< 0.1 µM,–,Cc1cc(Nc2nccc(C(F)(F)F)n2)cc(-c2cnc(C3(O)CCCN(S(=O)(=O)NC(=O)OC(C)(C)C)CC3)s2)c1 (stereo not shown) [Example 54D-114]
< 0.1 µM,–,Cc1cc(Nc2nccc(C(F)(F)F)n2)cc(-c2cnc(C3(O)CCCN(S(N)(=O)=O)CC3)s2)c1 (stereo not shown) [Example 54D-115]
< 0.1 µM,–,Cc1cc(Nc2nccc(C(F)(F)F)n2)cc(-c2cnc(C3(O)CCCN(S(=O)(=O)O)CC3)s2)c1 (stereo not shown) [Example 54D-118]
< 0.1 µM,–,Cc1cc(Nc2nccc(C(F)(F)F)n2)cc(-c2cnc(C3(O)CCCN(C(=O)CO)CC3)s2)c1 (stereo not shown) [Example 54D-121]
–,< 0.1 µM,Cc1cc(Nc2nccc(C(F)(F)F)n2)cc(-c2cnc([C@]3(O)CC[C@@H](NC(=O)[C@@H](C)O)CC3)s2)c1 [Example 54E-1]
–,< 0.1 µM,Cc1cc(Nc2nccc(C(F)(F)F)n2)cc(-c2cnc(C3(O)CCC(NC(=O)CC(N)=O)CC3)s2)c1 (stereo not shown) [Example 54E-3]
–,< 0.1 µM,Cc1cc(Nc2nccc(C(F)(F)F)n2)cc(-c2cnc([C@]3(O)CC[C@@H](NC(=O)c4ncc[nH]4)CC3)s2)c1 [Example 54E-4]
–,< 0.1 µM,Cc1cc(Nc2nccc(C(F)(F)F)n2)cc(-c2cnc([C@]3(O)CC[C@@H](NC(=O)c4c[nH]cn4)CC3)s2)c1 [Example 54E-5]
